In article PMC5897044 (Cell host & microbe, 2017):
Bridge positions count the residues as written; N and C are the ends. Peptide text beside a SMILES is read from it.

Tested on: PMN infiltration in skin
Conditions: mouse, in vivo

For `C[C@@H](O)[C@H](NC(=O)[C@H](CO)NC(=O)[C@@H](N)Cc1ccc(O)cc1)C(=O)N[C@H]1CSC(=O)[C@H](Cc2ccccc2)NC(=O)[C@H](Cc2ccc(O)cc2)NC(=O)[C@H](Cc2ccc(O)cc2)NC(=O)[C@H](CO)NC1=O` [S. caprae AIP] (H-YSTCSYYF; thioester 4-C), the “magnitude of PMN infiltration by sterile injection, AIP vs vehicle” value was “equivalent”.
